Source: patent publication US12331054B2, “Perk inhibiting imidazolopyrazine compounds” (HiberCell, Inc., priority 2019, dated 2025)

How the values were obtained:
[1] = molecular target: Recombinant human EIF2AK3 (PERK) catalytic domain (amino acids 536-1116) (Homo sapiens (Human), UniProt Q9NZJ5); assay: PERK In Vitro Activity Assay (isolated), TR-FRET kinase assay; conditions: isolated PERK enzyme, 1.5 μM ATP, read-out: Biochemical IC50
Summary of the method: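 IC50 values come from 4-parameter logistic fits of TR-FRET ratios, read after 90 min with 2 nM terbium-labelled phospho-eIF2a antibody following an EDTA stop (10 mM final). The kinase reaction ran 45 min at room temperature, started by adding PERK catalytic domain to 100–200 nM GFP-eIF2a in HEPES pH 7.5 buffer with MgCl2, EGTA and Brij-35.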

[2] = test system: eIF2α in HEK293-EGFP-eIF2α cells; assay: PERK Cellular Assay (HEK293-EGFP-eIF2α cells, tunicamycin-induced ER stress, TR-FRET); type: cell-based; conditions: tunicamycin 2 hours
Summary of the method: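 After 2 h tunicamycin ([…]) stress following 30 min compound pretreatment at 37 °C, lysed HEK293-EGFP-eIF2α cells were read by TR-FRET. IC50 derived by 4-parameter logistic fitting of percent inhibition, DMSO-normalized, from 10-point 3-fold dilutions.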

Sequence of Recombinant human EIF2AK3 (PERK) catalytic domain (amino acids 536-1116) (Q9NZJ5 536-1116): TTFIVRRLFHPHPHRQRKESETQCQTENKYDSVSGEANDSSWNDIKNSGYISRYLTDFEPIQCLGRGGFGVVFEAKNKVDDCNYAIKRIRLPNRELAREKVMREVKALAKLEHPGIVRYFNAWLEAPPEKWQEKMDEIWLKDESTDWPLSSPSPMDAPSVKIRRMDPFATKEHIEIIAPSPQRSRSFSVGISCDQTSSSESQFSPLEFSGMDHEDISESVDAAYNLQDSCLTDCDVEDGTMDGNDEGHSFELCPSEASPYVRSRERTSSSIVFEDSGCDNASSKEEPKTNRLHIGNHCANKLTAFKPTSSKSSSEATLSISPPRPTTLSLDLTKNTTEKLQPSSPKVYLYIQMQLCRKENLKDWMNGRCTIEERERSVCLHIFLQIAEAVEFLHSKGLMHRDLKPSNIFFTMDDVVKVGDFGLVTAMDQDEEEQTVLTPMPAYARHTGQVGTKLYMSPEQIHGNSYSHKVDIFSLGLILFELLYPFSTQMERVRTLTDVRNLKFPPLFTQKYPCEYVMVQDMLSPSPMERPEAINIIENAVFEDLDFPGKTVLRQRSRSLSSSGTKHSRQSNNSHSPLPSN

SMILES | IC50 [1] [nM] | IC50 [2] [nM] | IC50 ([2]; 2 h) [nM]
Cc1cnc(N)c2c(-c3ccc(NC(=O)C(O)c4cccc(C(F)(F)F)c4)cc3F)nc(C)n12 (stereo not shown) [Example 93, N-(4-(8-amino-3,5-dimethylimidazo [1,5-a]pyrazin-1-yl)-3-fluoro-phenyl)-2-hydroxy-2-(3-(trifluoromethyl)phenyl)acetamide] | 1 to 25 | 51 to 100 | 
[2H]C([2H])([2H])c1nc(-c2ccc(NC(=O)C(O)c3cccc(C(F)(F)F)c3)cc2F)c2c(N)ncc(C)n12 (stereo not shown) [Example 94, N-[4-[8-amino-5-methyl-3-(trideuteriomethyl)imidazo[1,5-a]pyrazin-1-yl]-3-fluoro-phenyl]-2-hydroxy-2-[3-(trifluoromethyl)phenyl]acetamide] | 1 to 25 | 1 to 25 | 
[2H]C([2H])([2H])c1nc(-c2ccc(NC(=O)C(O)c3cccc(C(F)(F)F)c3)cc2F)c2c(N)ncc(C)n12 (stereo not shown) [Example 95, N-[4-[8-amino-5-methyl-3-(trideuteriomethyl)imidazo[1,5-a]pyrazin-1-yl]-3-fluoro-phenyl]-2-hydroxy-2-[3-(trifluoromethyl)phenyl]acetamide] | 1 to 25 | 51 to 100 | 
[2H]C([2H])([2H])c1nc(-c2ccc(NC(=O)C(O)c3cccc(C(F)(F)F)c3)cc2F)c2c(N)nc(C)cn12 (stereo not shown) [Example 96, N-[4-[8-amino-6-methyl-3-(trideuteriomethyl)imidazo[1,5-a]pyrazin-1-yl]-3-fluoro-phenyl]-2-hydroxy-2-[3-(trifluoromethyl)phenyl]acetamide] | 1 to 25 | 1 to 25 | 
[2H]C([2H])([2H])c1nc(-c2ccc(NC(=O)C(O)c3cccc(C(F)(F)F)c3)cc2F)c2c(N)ncc(C(F)(F)F)n12 (stereo not shown) [Example 98, N-[4-[8-amino-3-(trideuteriomethyl)-5-(trifluoromethyl)imidazo[1,5-a]pyrazin-1-yl]-3-fluoro-phenyl]-2-hydroxy-2-[3-(trifluoromethyl)phenyl]acetamide] | 1 to 25 | 26 to 50 | 
[2H]C([2H])([2H])c1nc(-c2ccc(NC(=O)C(O)c3cccc(C(F)(F)F)c3)cc2F)c2c(N)ncc(C(F)(F)F)n12 (stereo not shown) [Example 99, N-[4-[8-amino-3-(trideuteriomethyl)-5-(trifluoromethyl)imidazo[1,5-a]pyrazin-1-yl]-3-fluoro-phenyl]-2-hydroxy-2-[3-(trifluoromethyl)phenyl]acetamide] | 26 to 50 | 101 to 250 | 
[2H]C([2H])([2H])c1nc(-c2ccc(NC(=O)C(O)c3cccc(C(F)(F)F)c3)cc2F)c2c(N)ncc(Cl)n12 (stereo not shown) [Example 100, N-[4-[8-amino-5-chloro-3-(trideuteriomethyl)imidazo[1,5-a]pyrazin-1-yl]-3-fluoro-phenyl]-2-hydroxy-2-[3-(trifluoromethyl)phenyl]acetamide] | 1 to 25 |  | 1 to 25
[2H]C([2H])([2H])c1nc(-c2ccc(NC(=O)C(O)c3cc(F)cc(F)c3)cc2F)c2c(N)nc(C)cn12 (stereo not shown) [Example 102, N-[4-[8-amino-6-methyl-3-(trideuteriomethyl)imidazo[1,5-a]pyrazin-1-yl]-3-fluoro-phenyl]-2-(3,5-difluoro-phenyl)-2-hydroxy-acetamide] | 1 to 25 | 1 to 25 | 
[2H]C([2H])([2H])c1nc(-c2ccc(NC(=O)C(O)c3cc(F)cc(F)c3)cc2F)c2c(N)nc(C)cn12 (stereo not shown) [Example 103, N-[4-[8-amino-6-methyl-3-(trideuteriomethyl)imidazo[1,5-a]pyrazin-1-yl]-3-fluoro-phenyl]-2-(3,5-difluoro-phenyl)-2-hydroxy-acetamide] | 1 to 25 | 251 to 500 | 
[2H]C([2H])([2H])c1nc(-c2ccc(NC(=O)C(O)c3cc(F)cc(F)c3)cc2F)c2c(N)ncc(C)n12 (stereo not shown) [Example 104, N-[4-[8-amino-5-methyl-3-(trideuteriomethyl)imidazo[1,5-a]pyrazin-1-yl]-3-fluoro-phenyl]-2-(3,5-difluoro-phenyl)-2-hydroxy-acetamide] | 1 to 25 | 1 to 25 | 
[2H]C([2H])([2H])c1nc(-c2ccc(NC(=O)C(O)c3cc(F)cc(F)c3)cc2F)c2c(N)ncc(C)n12 (stereo not shown) [Example 105, N-[4-[8-amino-5-methyl-3-(trideuteriomethyl)imidazo[1,5-a]pyrazin-1-yl]-3-fluoro-phenyl]-2-(3,5-difluoro-phenyl)-2-hydroxy-acetamide] | 1 to 25 | 26 to 50 | 
[2H]C([2H])([2H])c1nc(-c2ccc(NC(=O)C(O)c3cc(F)cc(F)c3)cc2F)c2c(N)ncc(C(F)(F)F)n12 (stereo not shown) [Example 106, N-[4-[8-amino-3-(trideuteriomethyl)-5-(trifluoromethyl)imidazo[1,5-a]pyrazin-1-yl]-3-fluoro-phenyl]-2-(3,5-difluoro-phenyl)-2-hydroxy-acetamide] | 1 to 25 | 1 to 25 | 
[2H]C([2H])([2H])c1nc(-c2ccc(NC(=O)C(O)c3cc(F)cc(F)c3)cc2F)c2c(N)ncc(C(F)(F)F)n12 (stereo not shown) [Example 107, N-[4-[8-amino-3-(trideuteriomethyl)-5-(trifluoromethyl)imidazo[1,5-a]pyrazin-1-yl]-3-fluoro-phenyl]-2-(3,5-difluoro-phenyl)-2-hydroxy-acetamide] | 1 to 25 | 26 to 50 | 
[2H]C([2H])([2H])c1nc(-c2ccc(NC(=O)C(O)c3cc(F)cc(F)c3)cc2F)c2c(N)ncc(Cl)n12 (stereo not shown) [Example 108, N-[4-[8-amino-5-chloro-3-(trideuteriomethyl)imidazo[1,5-a]pyrazin-1-yl]-3-fluoro-phenyl]-2-(3,5-difluoro-phenyl)-2-hydroxy-acetamide] | 1 to 25 |  | 1 to 25
[2H]C([2H])([2H])c1nc(-c2ccc(NC(=O)C(O)c3cc(F)cc(C(F)(F)F)c3)cc2F)c2c(N)ncc(C)n12 (stereo not shown) [Example 110, N-[4-[8-amino-5-methyl-3-(trideuteriomethyl)imidazo[1,5-a]pyrazin-1-yl]-3-fluoro-phenyl]-2-[3-fluoro-5-(trifluoromethyl)phenyl]-2-hydroxy-acetamide] | 1 to 25 | 1 to 25 | 
[2H]C([2H])([2H])c1nc(-c2ccc(NC(=O)C(O)c3cc(F)cc(C(F)(F)F)c3)cc2F)c2c(N)ncc(C)n12 (stereo not shown) [Example 111, N-[4-[8-amino-5-methyl-3-(trideuteriomethyl)imidazo[1,5-a]pyrazin-1-yl]-3-fluoro-phenyl]-2-[3-fluoro-5-(trifluoromethyl)phenyl]-2-hydroxy-acetamide] | 1 to 25 | 26 to 50 | 
[2H]C([2H])([2H])c1nc(-c2ccc(NC(=O)C(O)c3cc(F)cc(C(F)(F)F)c3)cc2F)c2c(N)ncc(C(F)(F)F)n12 (stereo not shown) [Example 112, N-[4-[8-amino-3-(trideuteriomethyl)-5-(trifluoromethyl)imidazo[1,5-a]pyrazin-1-yl]-3-fluoro-phenyl]-2-[3-fluoro-5-(trifluoromethyl)phenyl]-2-hydroxy-acetamide] | 1 to 25 | 1 to 25 | 
[2H]C([2H])([2H])c1nc(-c2ccc(NC(=O)C(O)c3cc(F)cc(C(F)(F)F)c3)cc2F)c2c(N)ncc(C(F)(F)F)n12 (stereo not shown) [Example 113, N-[4-[8-amino-3-(trideuteriomethyl)-5-(trifluoromethyl)imidazo[1,5-a]pyrazin-1-yl]-3-fluoro-phenyl]-2-[3-fluoro-5-(trifluoromethyl)phenyl]-2-hydroxy-acetamide] | 51 to 100 | 101 to 250 | 
[2H]C([2H])([2H])c1nc(-c2ccc(NC(=O)C(O)c3cc(F)cc(C(F)(F)F)c3)cc2F)c2c(N)ncc(Cl)n12 (stereo not shown) [Example 114, N-[4-[8-amino-5-chloro-3-(trideuteriomethyl)imidazo[1,5-a]pyrazin-1-yl]-3-fluoro-phenyl]-2-[3-fluoro-5-(trifluoromethyl)phenyl]-2-hydroxy-acetamide] | 1 to 25 | 1 to 25 | 
[2H]C([2H])([2H])c1nc(-c2ccc(NC(=O)C(O)c3cc(F)cc(C(F)(F)F)c3)cc2F)c2c(N)ncc(Cl)n12 (stereo not shown) [Example 115, N-[4-[8-amino-5-chloro-3-(trideuteriomethyl)imidazo[1,5-a]pyrazin-1-yl]-3-fluoro-phenyl]-2-[3-fluoro-5-(trifluoromethyl)phenyl]-2-hydroxy-acetamide] | 1 to 25 | 26 to 50 | 
[2H]C([2H])([2H])c1nc(-c2ccc(NC(=O)C(O)c3cc(F)cc(C(F)(F)F)c3)cc2F)c2c(N)nc(C)cn12 (stereo not shown) [Example 116, N-[4-[8-amino-6-methyl-3-(trideuteriomethyl)imidazo[1,5-a]pyrazin-1-yl]-3-fluoro-phenyl]-2-[3-fluoro-5-(trifluoromethyl)phenyl]-2-hydroxy-acetamide] | 1 to 25 | 1 to 25 | 
[2H]C([2H])([2H])c1nc(-c2ccc(NC(=O)C(O)c3cc(F)cc(C(F)(F)F)c3)cc2F)c2c(N)nc(C)cn12 (stereo not shown) [Example 117, N-[4-[8-amino-6-methyl-3-(trideuteriomethyl)imidazo[1,5-a]pyrazin-1-yl]-3-fluoro-phenyl]-2-[3-fluoro-5-(trifluoromethyl)phenyl]-2-hydroxy-acetamide] | 51 to 100 | 251 to 500 | 
[2H]C([2H])([2H])c1nc(-c2ccc(NC(=O)C(O)c3cccc(F)c3)c(F)c2)c2c(N)ncc(C)n12 (stereo not shown) [Example 122, N-[4-[8-amino-5-methyl-3-(trideuteriomethyl)imidazo[1,5-a]pyrazin-1-yl]-2-fluoro-phenyl]-2-(3-fluorophenyl)-2-hydroxy-acetamide] | 26 to 50 | 251 to 500 | 
